{
  "source": "patent US20080182895A1",
  "about": "(priority 2006, published 2008)",
  "key": {"[1]": {"test_system": "Clone A cells (HCV genotype 1b replicon in Huh-7)", "assay": "HCV replicon 3-day assay, HCV RNA by TaqMan RT-PCR", "format": "cell-based, Hepatitis C virus", "settings": "for EC50: Hepatitis C virus, Huh-7", "protocol": "The level of HCV RNA from cultures was expressed as % HCV RNA relative to control. Each point represents an average of four replicates. The effective concentration that inhibits 50% of HCV RNA levels (EC50) in the replicon-containing cells is indicated.\nThe levels of HCV RNA were determined using a quantitative TAQMAN® RT-PCR (PE Applied Biosystems, Foster City, Calif.).\nDrug susceptibility of the replicon-containing cells to various compounds was evaluated as described previously (Howe et al. (2004) Antimicrobial Agents Chem. 48:4813-21). Briefly, cells were treated with increasing concentrations of compounds in medium containing 2% FCS and no G418 for three days at 37° C. and 5% CO2. After incubation, total RNA from the replicon-containing cells was isolated. The levels of HCV, glyceraldehyde 3-phosphate dehydrogenase (GAPDH) and ribosomal (rRNA) RNAs were quantified using TAQMAN® (PE Applied Biosystems, Foster City, Calif.) reverse transcriptase PCR reactions. The amounts of HCV, 18S ribosomal, and GAPDH RNAs in each sample were estimated by comparing the number of cycles during the exponential phase of the PCR amplification with those in the corresponding standard curves. HCV RNA standards used for the construction of the standard curve were prepared by extracting the total RNA from the Clone A cells. The RNA sample was sent to National Genetics Institute to quantify HCV RNA. Total RNA extracted from Clone A cells was quantified by O.D.260 measurement and used for construction of the standard curves of rRNA and GAPDH. The concentrations of the compounds that inhibit 50% of the HCV RNA level (EC50) were determined using the MDL® LIFE SCIENCE WORKBENCH® (LSW) Data Analysis software (MDL Information Systems, San Leandro, Calif.) in Microsoft EXCEL®. The amounts of HCV or GAPDH RNAs in the samples were expressed as HCV RNA (copies) or GAPDH (ng), respectively, per μg of total RNA using rRNA as a marker for total RNA measurement."}, "[2]": {"target": "T1, HCV NS5B enzyme BB7 (C316) (Hepatitis C virus genotype 1b, UniProt Q9WMX2)", "T1 construct": "according to the protocol for NS5B-BB7dCT21-His as described; His (C); made in house; host or cells: E. coli", "assay": "biochemical", "protocol": "(§1) All NS5B enzymes were expressed and purified according to the protocol for NS5B-BB7dCT21-His as described (Howe et al. (2004) Antimicrobial Agents Chem. 48:4813-21). Briefly, expression plasmids were transformed into E. coli cells and NS5B expression was initiated by the addition of isopropyl-beta-D-thiogalactopyranoside (IPTG). After 4 to 6 hours of incubation the cells were harvested and lysed. NS5B enzymes were purified by chromatography using a nickel affinity column (Talon, B D Biosciences, Clontech Laboratories, Inc., Mountain View, Calif.)) followed by a cation exchange column (Poros H S, Applied Biosystems, Foster City, Calif.)."}, "[3]": {"target": "T2, HCV NS5B enzyme BB7-M414I (Hepatitis C virus genotype 1b, UniProt Q9WMX2, M2833I)", "T2 construct": "To prepare expression plasmid NS5B-BB7dCT21-His(M414I); His (C); made in house; host or cells: E. coli", "assay": "NS5B polymerase biochemical assay", "protocol": "as §1"}, "[4]": {"target": "T3, HCV NS5B enzyme BK (N316) (Hepatitis C virus genotype 1b, UniProt P26663)", "T3 construct": "the NS5B enzyme derived from the genotype 1b BK isolate; His (C); made in house; host or cells: E. coli", "T3 sequence (P26663 2420-2989)": "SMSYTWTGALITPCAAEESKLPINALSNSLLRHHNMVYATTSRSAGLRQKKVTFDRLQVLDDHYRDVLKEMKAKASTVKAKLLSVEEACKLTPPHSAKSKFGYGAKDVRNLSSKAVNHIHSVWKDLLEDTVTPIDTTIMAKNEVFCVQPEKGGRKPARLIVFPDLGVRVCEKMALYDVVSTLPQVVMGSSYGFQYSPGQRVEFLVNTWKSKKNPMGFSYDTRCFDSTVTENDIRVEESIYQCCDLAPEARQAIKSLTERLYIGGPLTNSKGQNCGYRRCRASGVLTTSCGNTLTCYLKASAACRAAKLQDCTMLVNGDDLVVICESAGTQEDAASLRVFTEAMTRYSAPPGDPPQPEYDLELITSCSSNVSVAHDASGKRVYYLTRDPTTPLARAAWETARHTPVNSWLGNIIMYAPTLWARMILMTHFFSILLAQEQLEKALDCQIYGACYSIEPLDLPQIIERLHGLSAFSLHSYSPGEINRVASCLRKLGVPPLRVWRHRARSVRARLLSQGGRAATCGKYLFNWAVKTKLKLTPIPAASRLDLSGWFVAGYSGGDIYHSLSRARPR", "assay": "NS5B polymerase biochemical assay", "protocol": "as §1"}, "[5]": {"target": "T4, HCV NS5B enzyme BB7-C316Y (Hepatitis C virus genotype 1b, UniProt Q9WMX2, C2735Y)", "T4 construct": "To prepare expression plasmid NS5B-BB7dCT21-His(C316Y); His (C); made in house; host or cells: E. coli", "assay": "NS5B polymerase biochemical assay", "protocol": "as §1"}, "[6]": {"target": "T5, HCV NS5B enzyme BB7-C316F (Hepatitis C virus genotype 1b, UniProt Q9WMX2, C2735F)", "T5 construct": "NS5B-BB7dCT21-His(C316F/S/Y/N); His (C); made in house; host or cells: E. coli", "assay": "NS5B polymerase biochemical assay", "protocol": "as §1"}, "[7]": {"test_system": "HCV NS5B enzyme BB7-C316N", "assay": "NS5B polymerase biochemical assay", "design": "species or system Hepatitis C virus genotype 1b", "settings": "BB7-C316N vs BB7 (C316)", "protocol": "as §1"}, "[8]": {"test_system": "HCV NS5B enzyme BB7-M414I", "assay": "NS5B polymerase biochemical assay", "design": "species or system Hepatitis C virus genotype 1b", "settings": "BB7-M414I vs BB7 (C316)", "protocol": "as §1"}, "[9]": {"test_system": "HCV NS5B enzyme BB7-C316F", "assay": "NS5B polymerase biochemical assay", "design": "species or system Hepatitis C virus genotype 1b", "settings": "BB7-C316F vs BB7 (C316)", "protocol": "as §1"}, "[10]": {"test_system": "HCV NS5B enzyme BB7-M414V", "assay": "NS5B polymerase biochemical assay", "design": "species or system Hepatitis C virus genotype 1b", "settings": "BB7-M414V vs BB7 (C316)", "protocol": "as §1"}, "[11]": {"target": "T6, HCV NS5B enzyme BB7-M414V (Hepatitis C virus genotype 1b, UniProt Q9WMX2, M2833V)", "T6 construct": "NS5B-BB7dCT21-His(M414T/V/I); His (C); made in house; host or cells: E. coli", "assay": "NS5B polymerase biochemical assay", "protocol": "as §1"}, "[12]": {"target": "T7, HCV NS5B enzyme BB7-C316N (Hepatitis C virus genotype 1b, UniProt Q9WMX2, C2735N)", "T7 construct": "To prepare expression plasmid NS5B-BB7dCT21-His(C316N); His (C); made in house; host or cells: E. coli", "assay": "NS5B polymerase biochemical assay", "protocol": "as §1"}, "[13]": {"test_system": "HCV NS5B enzyme BB7-C316Y", "assay": "NS5B polymerase biochemical assay", "design": "species or system Hepatitis C virus genotype 1b", "settings": "BB7-C316Y vs BB7 (C316)", "protocol": "as §1"}, "HCV NS5B enzyme BK-N316C": {"target": "T8, HCV NS5B enzyme BK-N316C (Hepatitis C virus genotype 1b, UniProt P26663, N2735C)", "T8 construct": "the NS5B enzyme derived from the genotype 1b BK isolate; His (C); made in house; host or cells: E. coli", "T8 sequence (P26663 2420-2989 N2735C)": "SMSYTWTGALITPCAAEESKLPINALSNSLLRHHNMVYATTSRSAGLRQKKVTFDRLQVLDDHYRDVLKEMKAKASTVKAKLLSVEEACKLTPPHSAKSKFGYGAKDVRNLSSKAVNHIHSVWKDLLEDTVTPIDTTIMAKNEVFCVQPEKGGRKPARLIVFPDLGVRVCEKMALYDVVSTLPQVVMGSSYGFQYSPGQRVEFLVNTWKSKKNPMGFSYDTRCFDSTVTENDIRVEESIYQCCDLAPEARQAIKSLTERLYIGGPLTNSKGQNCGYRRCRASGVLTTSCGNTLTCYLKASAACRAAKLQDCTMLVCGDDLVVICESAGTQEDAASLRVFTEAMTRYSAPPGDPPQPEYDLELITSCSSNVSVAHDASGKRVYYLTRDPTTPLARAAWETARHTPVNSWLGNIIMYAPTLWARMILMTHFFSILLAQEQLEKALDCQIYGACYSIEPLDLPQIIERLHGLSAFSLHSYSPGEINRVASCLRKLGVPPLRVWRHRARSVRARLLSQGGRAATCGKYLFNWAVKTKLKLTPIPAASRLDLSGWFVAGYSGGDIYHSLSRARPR", "assay": "NS5B polymerase biochemical assay", "protocol": "as §1"}, "[14]": {"test_system": "recombinant genotype 1b HCV NS5B enzyme variants", "assay": "NS5B polymerase biochemical assay, several enzymes taken together", "design": "species or system Hepatitis C virus genotype 1b", "protocol": "as §1"}},
  "note": "Several values for one entry are separate records, joined by “and”; a condition that tells them apart may be missing. Equal entries are not always repeated. Where two headings read alike, the source gives them in different places.",
  "data": [
    {"smiles": "CNC(=O)c1c(-c2ccc(F)cc2)oc2cc(N(CCO)S(C)(=O)=O)c(C3CC3)cc12", "note": "[HCV-796, 5-cyclopropyl-2-(4-fluorophenyl)-6-[(2-hydroxyethyl)(methylsulfonyl)amino]-N-methyl-1-benzofuran-3-carboxamide]", "values": [
      {"measurement": "Mean log10 Viral Reduction", "setting": "[1]; CloneA cells, 0.7 μM compound, 3-day assay", "value": "2.1 log10 and 2.1 ± 0.4 (0.7 μM) log10"},
      {"measurement": "EC50", "setting": "[1]; CloneA cells, HCV RNA, 72 hours, read-out: EC50 (μM) ± SD", "value": "0.013 ± 0.013", "unit": "µM"},
      {"measurement": "EC50", "setting": "[1]; hepatoma cells containing a subgenomic genotype 1b HCV replicon, read-out: EC50", "value": 0.009, "unit": "µM"},
      {"measurement": "IC50", "setting": "[2]", "value": 40, "unit": "nM"},
      {"measurement": "IC50", "setting": "[3]", "value": "24 ± 6", "unit": "nM"},
      {"measurement": "IC50", "setting": "[4]", "value": "140 ± 50", "unit": "nM"},
      {"measurement": "IC50", "setting": "[5]", "value": "320 ± 10", "unit": "nM"},
      {"measurement": "IC50", "setting": "[6]", "value": "1510 ± 419", "unit": "nM"},
      {"measurement": "Susceptibility Relative to Wild type Enzyme", "setting": "[7]", "value": "2-fold less"},
      {"measurement": "Susceptibility Relative to Wild type Enzyme", "setting": "[8]", "value": "1.7-fold more"},
      {"measurement": "Susceptibility Relative to Wild type Enzyme", "setting": "[9]", "value": "124-fold less"},
      {"measurement": "Susceptibility Relative to Wild type Enzyme", "setting": "[10]", "value": "1.4-fold more"},
      {"measurement": "IC50", "setting": "[11]", "value": "28 ± 2", "unit": "nM"},
      {"measurement": "IC50", "setting": "[12]", "value": "81 ± 42", "unit": "nM"},
      {"measurement": "Susceptibility Relative to Wild type Enzyme", "setting": "[13]", "value": "8-fold less"},
      {"measurement": "IC50", "setting": "HCV NS5B enzyme BK-N316C", "value": "31 ± 4", "unit": "nM"},
      {"measurement": "Susceptibility Relative to Wild type Enzyme", "setting": "HCV NS5B enzyme BK-N316C; BK-N316C vs wild type BK (N316)", "value": "4.5 fold more and 4.5-fold more"},
      {"measurement": "difference in drug susceptibility (in words)", "setting": "[14]; M414V/I and I363V enzyme variants vs wild type enzyme", "value": "no appreciable difference in drug susceptibility"},
      {"measurement": "susceptibility of Asn316 enzymes compared with Cys316 enzymes (in words)", "setting": "[14]; NS5B enzymes of genotype 1b isolates BK and J4, data not shown", "value": "less susceptible"}
    ]}
  ]
}
